In patent publication US7365096B2, “Methods for selectively inhibiting Janus tyrosine kinase 3 (Jak3)” (Board of Regents, The University of Texas System, priority 2002, dated 2008):
Entries after “also recorded” stand apart in the source; their conditions may differ.

Assays:
Fyn = Fyn (Homo sapiens, UniProt P06241); assay: Tyrosine phosphorylation of activated Fyn in YT cells; assay type: cell-based; parameters: Cellular extracts were immunoprecipitated with anti-Fyn or anti-Lck antibodies; endogenous in cells; host or cells: YT cells; conditions: 1-100 μM, 2 hours
Sequence of Fyn (P06241 whole entry): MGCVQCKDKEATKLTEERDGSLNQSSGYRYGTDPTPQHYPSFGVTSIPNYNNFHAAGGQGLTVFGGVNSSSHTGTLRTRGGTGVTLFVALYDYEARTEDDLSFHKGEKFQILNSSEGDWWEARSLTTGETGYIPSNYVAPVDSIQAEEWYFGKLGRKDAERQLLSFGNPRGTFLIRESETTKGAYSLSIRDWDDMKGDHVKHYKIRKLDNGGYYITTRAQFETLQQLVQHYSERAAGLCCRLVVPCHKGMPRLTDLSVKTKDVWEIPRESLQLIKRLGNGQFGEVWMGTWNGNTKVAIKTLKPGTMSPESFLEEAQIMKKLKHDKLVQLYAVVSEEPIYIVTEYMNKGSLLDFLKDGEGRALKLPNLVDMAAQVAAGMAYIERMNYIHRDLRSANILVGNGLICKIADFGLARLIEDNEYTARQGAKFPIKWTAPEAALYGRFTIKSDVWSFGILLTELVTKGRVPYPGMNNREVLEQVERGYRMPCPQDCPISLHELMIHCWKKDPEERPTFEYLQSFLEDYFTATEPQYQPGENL

adapter protein Shc = assay: Shc tyrosine phosphorylation (phospho-Western blot); assay type: cell-based; conditions: phospho-Western blots
Description: (§1) Solubilization of membrane proteins, immunoprecipitation, and Western blot analysis. Frozen cell pellets were thawed on ice and solubilized in 1% TX-100 lysis buffer (10^8 cells/ml) and clarified by centrifugation, as previously described.^16 For human T-cells, supernates were incubated rotating end over end for 2 hours at 4° C. with either 5 μl/ml polyclonal rabbit antisera raised against peptides derived from the unique COOH-termini of Jak3 (amino acid [a.a.] 1104-1124), carboxyl termini of human Stat5a (a.a. 775-794) or Stat5b (a.a. 777-787).^26 Ab and immunoprecipitated proteins were captured by incubation for 30 minutes with Protein A-Sepharose beads (Pharmacia, Piscataway, N.J.), sedimented for purification, and eluted by boiling in 2×SDS-sample buffer (20% Glycerol, 10% 2-Mercaptoethanol, 4.6% SDS, 0.004% Bromophenol blue in 0.125 M Tris pH 6.8) for 4 minutes. For phosphoMapk assays, approximately 25 μg of total cell lysate was dissociated in SDS-sample buffer and separated on 10% (all others on 7.5%) SDS-PAGE under reducing conditions. […]

Stat5a/b = assay: IL-2 activated Stat5a/b tyrosine phosphorylation in YT cells (Western blot); assay type: cell-based, human; conditions: phospho-Western blots
Description: as §1

Jak3 = biological target: T1, Jak3 (Homo sapiens, UniProt P52333); assay: Jak3 autokinase activity of immunopurified Jak3 (phosphotyrosine Western blot); assay type: biochemical; parameters: immunopurified Jak3 was assayed for Jak3 autokinase activity and tested by phosphotyrosine Western blot; endogenous in cells
T1 sequence (P52333 1-1124): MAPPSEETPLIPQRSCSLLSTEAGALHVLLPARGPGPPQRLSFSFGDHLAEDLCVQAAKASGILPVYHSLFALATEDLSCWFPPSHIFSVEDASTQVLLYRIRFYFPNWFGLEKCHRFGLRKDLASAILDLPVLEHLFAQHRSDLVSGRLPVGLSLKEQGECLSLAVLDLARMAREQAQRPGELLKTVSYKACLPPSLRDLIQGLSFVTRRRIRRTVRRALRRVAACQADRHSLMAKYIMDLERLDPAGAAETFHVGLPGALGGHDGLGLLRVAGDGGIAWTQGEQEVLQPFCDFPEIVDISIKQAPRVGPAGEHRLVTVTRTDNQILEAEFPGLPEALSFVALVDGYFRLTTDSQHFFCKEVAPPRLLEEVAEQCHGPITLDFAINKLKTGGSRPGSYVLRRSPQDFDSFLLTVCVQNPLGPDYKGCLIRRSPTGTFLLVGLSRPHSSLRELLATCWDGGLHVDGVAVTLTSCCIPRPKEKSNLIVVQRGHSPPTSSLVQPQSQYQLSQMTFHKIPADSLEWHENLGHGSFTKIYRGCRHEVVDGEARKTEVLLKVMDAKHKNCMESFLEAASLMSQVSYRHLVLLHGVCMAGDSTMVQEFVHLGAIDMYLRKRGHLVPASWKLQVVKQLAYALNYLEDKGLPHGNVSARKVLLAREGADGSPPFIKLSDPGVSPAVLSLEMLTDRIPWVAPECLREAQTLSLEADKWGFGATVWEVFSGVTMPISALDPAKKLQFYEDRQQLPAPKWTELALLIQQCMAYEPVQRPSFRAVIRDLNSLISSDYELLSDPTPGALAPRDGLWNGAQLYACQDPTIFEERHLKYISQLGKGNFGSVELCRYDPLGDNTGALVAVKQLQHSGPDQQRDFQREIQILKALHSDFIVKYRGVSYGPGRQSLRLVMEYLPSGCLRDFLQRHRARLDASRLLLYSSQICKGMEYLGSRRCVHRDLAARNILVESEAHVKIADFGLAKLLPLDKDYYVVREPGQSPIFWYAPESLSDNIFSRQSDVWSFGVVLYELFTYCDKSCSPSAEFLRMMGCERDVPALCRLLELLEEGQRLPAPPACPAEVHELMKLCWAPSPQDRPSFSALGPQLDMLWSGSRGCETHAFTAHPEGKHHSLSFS
Description: Immunopurified Jak3 was assayed for Jak3 autokinase activity and tested by phosphotyrosine Western blot in the absence or presence of 100 μM ATP and/or drug and compared to controls.
Referring now to FIG. 8, direct evidence is provided that […] (NC1153) inhibits Jak3 signaling pathways. […] The bands identified as “PY-Jak3” reveal only the active Jak3 at the indicated dosages of NC1153, with or without IL-2 and ATP.

CN(C)CC1CCCCCCCCCC(CN(C)C)C1=O (mixture of isomers) [649641P (NC1153)]
activity (tyrosine phosphorylation) of Fyn (Fyn): no effect; also recorded: does not block the activity; also recorded: did not inhibit
tyrosine phosphorylation of adapter protein Shc (adapter protein Shc): inhibited tyrosine phosphorylation
tyrosine phosphorylation of Stat5a/b (Stat5a/b): inhibited tyrosine phosphorylation
IC50 (Jak3; 100 μM ATP): ~2500 nM
inhibition of Jak3 relative to Jak2 in kinase assays (Jak3; FIG. 9B and FIG. 8): At least 50 fold
